A word on the pIC50: it is the IC50 on a negative log10 scale, so that one unit is a factor of ten.

pIC50: −log10 of the molar value.

This assay deals with human ACC2 (Homo sapiens (Human), UniProt O00763). Put plainly: ACC2 assay, spectrophotometric 384 well assay (NADH-linked kinetic method). The note with it: human ACC2 construct lacking the 128 N-terminal amino acids; coupled lactate dehydrogenase/pyruvate kinase reaction, 340 nm, 25° C. In kind it is biochemical. Here is the method: Spectrophotometric 384 Well Assay
human ACC2, sequence (O00763 129-2458): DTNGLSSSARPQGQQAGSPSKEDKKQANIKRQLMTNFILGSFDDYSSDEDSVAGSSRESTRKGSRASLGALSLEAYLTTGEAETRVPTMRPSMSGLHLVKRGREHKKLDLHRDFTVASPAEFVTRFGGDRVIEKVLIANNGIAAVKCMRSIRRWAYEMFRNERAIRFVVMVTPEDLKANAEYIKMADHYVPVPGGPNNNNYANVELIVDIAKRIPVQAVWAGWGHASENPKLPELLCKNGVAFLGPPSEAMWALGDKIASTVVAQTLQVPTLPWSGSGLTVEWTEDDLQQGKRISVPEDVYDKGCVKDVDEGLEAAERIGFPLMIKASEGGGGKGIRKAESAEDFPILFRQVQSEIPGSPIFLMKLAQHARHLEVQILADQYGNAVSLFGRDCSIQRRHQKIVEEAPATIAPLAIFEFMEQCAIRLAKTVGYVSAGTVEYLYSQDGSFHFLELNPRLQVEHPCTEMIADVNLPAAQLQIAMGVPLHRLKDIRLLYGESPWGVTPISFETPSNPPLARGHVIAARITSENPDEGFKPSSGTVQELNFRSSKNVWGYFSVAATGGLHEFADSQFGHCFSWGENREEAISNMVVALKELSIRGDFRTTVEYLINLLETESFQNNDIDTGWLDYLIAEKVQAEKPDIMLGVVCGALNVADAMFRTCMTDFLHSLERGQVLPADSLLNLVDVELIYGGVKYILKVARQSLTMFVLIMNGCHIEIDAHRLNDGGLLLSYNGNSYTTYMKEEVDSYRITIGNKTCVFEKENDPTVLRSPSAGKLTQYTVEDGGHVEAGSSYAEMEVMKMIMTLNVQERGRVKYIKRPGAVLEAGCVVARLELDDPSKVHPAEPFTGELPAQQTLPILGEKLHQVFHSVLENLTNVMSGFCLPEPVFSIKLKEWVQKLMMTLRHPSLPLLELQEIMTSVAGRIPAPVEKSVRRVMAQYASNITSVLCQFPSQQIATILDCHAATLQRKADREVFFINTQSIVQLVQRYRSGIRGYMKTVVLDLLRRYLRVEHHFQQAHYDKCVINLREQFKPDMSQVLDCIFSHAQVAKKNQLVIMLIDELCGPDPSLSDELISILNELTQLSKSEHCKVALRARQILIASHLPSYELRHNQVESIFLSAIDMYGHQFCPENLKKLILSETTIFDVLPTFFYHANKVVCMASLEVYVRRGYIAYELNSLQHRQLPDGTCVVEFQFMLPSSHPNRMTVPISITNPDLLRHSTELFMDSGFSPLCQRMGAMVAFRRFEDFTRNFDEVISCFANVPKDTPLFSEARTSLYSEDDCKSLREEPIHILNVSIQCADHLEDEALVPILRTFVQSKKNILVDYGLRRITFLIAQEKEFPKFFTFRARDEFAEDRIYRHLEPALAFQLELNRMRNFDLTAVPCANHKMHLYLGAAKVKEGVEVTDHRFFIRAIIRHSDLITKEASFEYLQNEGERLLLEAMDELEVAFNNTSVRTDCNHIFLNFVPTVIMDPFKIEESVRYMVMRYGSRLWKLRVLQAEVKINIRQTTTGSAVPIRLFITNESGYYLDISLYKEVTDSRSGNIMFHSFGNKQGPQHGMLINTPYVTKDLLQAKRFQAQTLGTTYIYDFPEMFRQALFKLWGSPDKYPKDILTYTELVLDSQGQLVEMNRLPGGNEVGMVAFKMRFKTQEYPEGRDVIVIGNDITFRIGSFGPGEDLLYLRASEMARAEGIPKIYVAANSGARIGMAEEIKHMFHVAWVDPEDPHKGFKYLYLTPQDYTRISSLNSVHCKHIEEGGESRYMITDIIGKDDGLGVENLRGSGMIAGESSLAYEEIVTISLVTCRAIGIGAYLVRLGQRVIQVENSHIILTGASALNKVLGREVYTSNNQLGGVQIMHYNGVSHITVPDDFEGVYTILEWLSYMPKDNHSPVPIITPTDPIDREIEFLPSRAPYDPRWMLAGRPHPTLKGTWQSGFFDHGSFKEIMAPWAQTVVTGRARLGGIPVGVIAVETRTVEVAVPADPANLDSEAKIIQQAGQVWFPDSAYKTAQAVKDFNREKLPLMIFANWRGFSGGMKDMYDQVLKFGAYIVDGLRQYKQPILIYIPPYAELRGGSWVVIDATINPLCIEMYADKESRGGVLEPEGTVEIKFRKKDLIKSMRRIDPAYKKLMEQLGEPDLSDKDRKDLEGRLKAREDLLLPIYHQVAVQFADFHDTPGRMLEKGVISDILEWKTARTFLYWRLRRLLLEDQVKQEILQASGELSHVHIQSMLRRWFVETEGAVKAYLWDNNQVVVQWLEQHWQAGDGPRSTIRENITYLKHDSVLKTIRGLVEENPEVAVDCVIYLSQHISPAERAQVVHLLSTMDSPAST
Malonyl CoA formation by acetyl CoA carboxylases is stoichometrically linked to the consumption of ATP. ACC2 activity is measured in a NADH-linked kinetic method measuring ADP generated during the ACC reaction using a coupled lactate dehydrogenase/pyruvate kinase reaction.
For biological testing, a human ACC2 construct which lacks the 128 amino acids at the N-terminus for increased solubility (nt 385-6966 in Genbank entry AJ575592) is cloned. The protein is then expressed in insect cells using a baculoviral expression system. Protein purification is performed by anion exchange.
All compounds are dissolved in dimethyl sulfoxide (DMSO) to a concentration of 10 mM.
The enzymatic reaction is then started by addition of a mixture of NADH, acetyl Coenzyme A (both 2000 μM f.c.) and ATP (500 uM f.c.). The decrease of the optical density (slope S) is then determined at 25° C. at a wavelength of 340 nm over 15 minutes in a spectrophotometric reader.
Each assay microtiter plate contains wells with vehicle instead of compound as controls for the non-inhibited enzyme (100% CTL; ‘HIGH’) and wells without acetyl-CoA as controls for non-specific NADH degradation (0% CTL; ‘LOW’).
The slope S is used for calculation of % CTL=(S(compound)−S(‘LOW’))/(S(‘HIGH’)−S(‘LOW’))*100.
For IC50 value determination, the sample slope in the presence of the test compound after subtraction of the low controls (S(compound)−S(‘LOW’)) are used.
An IC50 value is derived from the compound slopes at different dosages after subtraction of the low controls (S(compound)−S(‘LOW’)) by non-linear regression curve fitting (equation y=(A+((B−A)/(1+((C/x)^D))))).
Take `CC(=O)N[C@@H](C)c1ccc(O[C@@H]2CCN(c3ccnc(N4CCC4)c3C)C2)cc1` [Example 1.126]: the pIC50 is 6.22.

`COc1c(N2CC[C@@H](Oc3ccc([C@H](C)NC(C)=O)cc3)C2)ccnc1OCC1CC1` [Example 1.127]: the pIC50 is 7.51.

The molecule `CCOc1ccc(N2CC[C@@H](Oc3ccc([C@H](C)NC(C)=O)cc3)C2)c(OC)n1` [Example 1.128] gave a pIC50 of 6.44.

For the molecule `CCCN(C)c1nccc(N2CC[C@@H](Oc3ccc([C@H](C)NC(C)=O)cc3)C2)c1OC` [Example 1.129], the pIC50 is 6.68.

`CCCOc1ccc(N2CC[C@@H](Oc3ccc([C@H](C)NC(C)=O)cc3)C2)c(OC)n1` [Example 1.130] had a pIC50 of 6.63.

Molecule `CC(=O)N[C@@H](C)c1ccc(O[C@@H]2CCN(c3ccnc(N4CCC4)c3Cl)C2)cc1` [Example 1.131] gave a pIC50 of 7.12.

For the molecule `CC(=O)N[C@@H](C)c1ccc(O[C@@H]2CCN(c3ccnc(N4CCC(F)(F)C4)c3Cl)C2)cc1` [Example 1.132], the pIC50 was 7.39.

Molecule `CC(=O)N[C@@H](C)c1ccc(O[C@@H]2CCN(c3cccc(N(C)CC(F)F)n3)C2)cc1` [Example 1.133] gave a pIC50 of 6.61.

For `CC(=O)N[C@@H](C)c1ccc(O[C@@H]2CCN(c3cccc(N(C)C4CCC4)n3)C2)cc1` [Example 1.134], the negative-log IC50 (pIC50) is 6.99.

Consider `CCCNc1nccc(N2CC[C@@H](Oc3ccc([C@H](C)NC(C)=O)cc3)C2)c1Cl` [Example 1.135], for which the pIC50 was 7.21.

`COc1c(N2CC[C@@H](Oc3ccc([C@H](C)NC(C)=O)cc3)C2)ccnc1N1CCCC1` [Example 1.136]: the pIC50 is 6.32.

`COc1c(N2CC[C@@H](Oc3ccc([C@H](C)NC(C)=O)cc3)C2)ccnc1N(C)C` [Example 1.137] showed a pIC50 of 6.20.

For `CC(=O)N[C@@H](C)c1ccc(O[C@@H]2CCN(c3ccnc(NCC4CC4)c3Cl)C2)cc1` [Example 1.138], the pIC50 was 7.59.

`COc1c(N2CC[C@@H](Oc3ccc([C@H](C)NC(C)=O)cc3)C2)ccnc1OCCC1CC1` [Example 1.139]: the pIC50 is 7.43.

Regarding `CCC(=O)Nc1nc(C)c(C(=O)N[C@@H](C)c2ccc(O[C@@H]3CCN(c4ccnc(NCC5CC5)c4Cl)C3)cc2)s1` [Example 1.140], the pIC50 is 7.19.

Regarding `CCC(=O)Nc1nc(C)c(C(=O)N[C@@H](C)c2ccc(O[C@@H]3CCN(c4ccnc(NCC(F)F)c4F)C3)cc2)s1` [Example 1.141], the pIC50 was 6.38.

Consider `CCC(=O)Nc1nc(C)c(C(=O)N[C@@H](C)c2ccc(O[C@@H]3CCN(c4ccnc(NCC5CC5)c4F)C3)cc2)s1` [Example 1.142], for which the pIC50 was 7.17.

`CCC(=O)Nc1nc(C)c(C(=O)N[C@@H](C)c2ccc(O[C@@H]3CCN(c4ccnc(NCC(F)F)c4Cl)C3)cc2)s1` [Example 1.143] showed a pIC50 of 6.94.

In the case of `CCC(=O)Nc1nc(C)c(C(=O)N[C@@H](C)c2ccc(O[C@@H]3CCN(c4ccc(OC[C@H]5CC5(F)F)cn4)C3)cc2)s1` [Example 1.144], the pIC50 was 7.03.

Molecule `CCC(=O)Nc1nc(C)c(C(=O)N[C@@H](C)c2ccc(O[C@@H]3CCN(c4ccc(OC[C@@H]5CC5(F)F)cn4)C3)cc2)s1` [Example 1.145] showed a pIC50 of 6.00.

Turning to `COc1c(N2CC[C@@H](Oc3ccc([C@H](C)NC(C)=O)cc3)C2)ccnc1N1CCC(F)(F)C1` [Example 1.146], the pIC50 is 6.96.

Regarding `CC(=O)N[C@@H](C)c1ccc(O[C@@H]2CCN(c3ccnc(N4CCCC4)c3Cl)C2)cc1` [Example 1.148], the pIC50 was 7.33.

With `COc1c(N2CC[C@@H](Oc3ccc([C@H](C)NC(C)=O)cc3)C2)ccnc1OCC(C)(C)OC` [Example 1.149], the pIC50 is 6.81.

Regarding `COc1c(N2CC[C@@H](Oc3ccc([C@H](C)NC(C)=O)cc3)C2)ccnc1OC(C)C` [Example 1.150], the pIC50 was 7.16.

Molecule `COc1c(N2CC[C@@H](Oc3ccc([C@H](C)NC(C)=O)cc3)C2)ccnc1OCC(C)(C)O` [Example 1.151] gave a pIC50 of 6.30.

`CC(=O)Nc1nc(C)c(C(=O)N[C@@H](C)c2ccc(O[C@@H]3CCN(c4ccc(OCC5CC5(F)F)cn4)C3)cc2)s1` (stereo partly drawn) [Example 2.1, 2-Acetamido-N—((1S)-1-(4-((3R)-1-(5-((2,2-difluorocyclopropyl)methoxy)pyridin-2-yl)pyrrolidin-3-yloxy)phenyl)ethyl)-4-methylthiazole-5-carboxamide]: the pIC50 was 7.60.

Turning to `CNC(=O)c1cccc(C(=O)N[C@@H](C)c2ccc(OC3CCN(c4ccc(OCC5CC5)cc4)C3)cc2)n1` (stereo partly drawn) [Example 2.2], the pIC50 is 6.15.

On to `CC(C)Oc1cc(N2CCC(Oc3ccc([C@H](C)NC(=O)C4CC4)cc3)C2)ccn1` (stereo partly drawn) [Example 2.3], for which the pIC50 is 6.83.

In turn, `CC(C)Oc1cc(N2CCC(Oc3ccc([C@H](C)NC(=O)c4cnn(C)c4)cc3)C2)ccn1` (stereo partly drawn) [Example 2.4] had a pIC50 of 6.84.

As for `Cc1nocc1C(=O)N[C@@H](C)c1ccc(OC2CCN(c3ccnc(OC(C)C)c3)C2)cc1` (stereo partly drawn) [Example 2.5], the pIC50 was 7.15.

In turn, `CC(C)Oc1cc(N2CCC(Oc3ccc([C@H](C)NC(=O)c4ccns4)cc3)C2)ccn1` (stereo partly drawn) [Example 2.6] had a pIC50 of 6.84.

Regarding `CC(C)Oc1cc(N2CCC(Oc3ccc([C@H](C)NC(=O)CC#N)cc3)C2)ccn1` (stereo partly drawn) [Example 2.7], the pIC50 was 6.41.

Regarding `CC(C)Oc1cc(N2CCC(Oc3ccc([C@H](C)NC(=O)c4cn[nH]c4)cc3)C2)ccn1` (stereo partly drawn) [Example 2.8], the pIC50 was 7.19.

Molecule `CC(C)Oc1cc(N2CCC(Oc3ccc([C@H](C)NC(=O)c4ccncc4)cc3)C2)ccn1` (stereo partly drawn) [Example 2.9] showed a pIC50 of 6.06.

As to `CC(C)Oc1cc(N2CCC(Oc3ccc([C@H](C)NC(=O)c4ccno4)cc3)C2)ccn1` (stereo partly drawn) [Example 2.10], the pIC50 was 6.17.

In the case of `CC(C)Oc1cc(N2CCC(Oc3ccc([C@H](C)NC(=O)CC(F)(F)F)cc3)C2)ccn1` (stereo partly drawn) [Example 2.11], the pIC50 is 6.00.

As to `Cc1occc1C(=O)N[C@@H](C)c1ccc(OC2CCN(c3ccnc(OC(C)C)c3)C2)cc1` (stereo partly drawn) [Example 2.12], the pIC50 is 6.04.

As for `CC(C)Oc1cc(N2CCC(Oc3ccc([C@H](C)NC(=O)C(C)F)cc3)C2)ccn1` (stereo partly drawn) [Example 2.13], the pIC50 is 6.10.

As for `CC(C)Oc1cc(N2CCC(Oc3ccc([C@H](C)NC(=O)C4CCOC4)cc3)C2)ccn1` (stereo partly drawn) [Example 2.15], the pIC50 was 6.11.

`CC(C)Oc1cc(N2CCC(Oc3ccc([C@H](C)NC(=O)C4(C(F)(F)F)CC4)cc3)C2)ccn1` (stereo partly drawn) [Example 2.17] had a pIC50 of 6.22.

The molecule `CC(C)Oc1cc(N2CCC(Oc3ccc([C@H](C)NC(=O)c4ccco4)cc3)C2)ccn1` (stereo partly drawn) [Example 2.18] showed a pIC50 of 6.06.

For the molecule `CC(C)Oc1cc(N2CCC(Oc3ccc([C@H](C)NC(=O)C(F)F)cc3)C2)ccn1` (stereo partly drawn) [Example 2.19], the pIC50 is 6.60.

`CC(C)Oc1cc(N2CCC(Oc3ccc([C@H](C)NC(=O)c4ccoc4)cc3)C2)ccn1` (stereo partly drawn) [Example 2.20]: the pIC50 is 6.96.

`CC(C)Oc1cc(N2CCC(Oc3ccc([C@H](C)NC(=O)C4(C)CC4)cc3)C2)ccn1` (stereo partly drawn) [Example 2.21] showed a pIC50 of 6.41.

Take `CC(=O)Nc1cncc(C(=O)N[C@@H](C)c2ccc(OC3CCN(c4ccnc(OC(C)C)c4)C3)cc2)c1` (stereo partly drawn) [Example 2.22]: the pIC50 is 6.00.

The molecule `CC(C)Oc1cc(N2CCC(Oc3ccc([C@H](C)NC(=O)C(C)C#N)cc3)C2)ccn1` (stereo partly drawn) [Example 2.23] had a pIC50 of 6.01.

`CC(C)Oc1cc(N2CCC(Oc3ccc([C@H](C)NC(=O)c4cncs4)cc3)C2)ccn1` (stereo partly drawn) [Example 2.24] had a pIC50 of 6.70.

`CC(C)Oc1cc(N2CCC(Oc3ccc([C@H](C)NC(=O)C4CCC4)cc3)C2)ccn1` (stereo partly drawn) [Example 2.25] had a pIC50 of 6.25.

Molecule `CC(=O)Nc1cc(C(=O)N[C@@H](C)c2ccc(OC3CCN(c4ccnc(OC(C)C)c4)C3)cc2)ccn1` (stereo partly drawn) [Example 2.26] gave a pIC50 of 6.33.

In turn, `CC(C)Oc1cc(N2CCC(Oc3ccc([C@H](C)NC(=O)C4(C#N)CC4)cc3)C2)ccn1` (stereo partly drawn) [Example 2.27] gave a pIC50 of 6.24.

As to `CC(C)Oc1cc(N2CCC(Oc3ccc([C@H](C)NC(=O)c4ccon4)cc3)C2)ccn1` (stereo partly drawn) [Example 2.28], the pIC50 was 6.29.

Take `CC(C)Oc1cc(N2CCC(Oc3ccc([C@H](C)NC(=O)C(C)(F)F)cc3)C2)ccn1` (stereo partly drawn) [Example 2.29]: the pIC50 was 6.57.

`CCC(=O)N[C@@H](C)c1ccc(OC2CCN(c3ccnc(OC(C)C)c3)C2)cc1` (stereo partly drawn) [Example 2.30] showed a pIC50 of 6.34.

With `Cc1cc(CC(=O)N[C@@H](C)c2ccc(OC3CCN(c4ccnc(OC(C)C)c4)C3)cc2)on1` (stereo partly drawn) [Example 2.31], the pIC50 was 6.02.

Molecule `C[C@H](NC(=O)C(F)F)c1ccc(OC2CCN(c3cccc(C(F)(F)F)n3)C2)cc1` (stereo partly drawn) [Example 2.32] gave a pIC50 of 6.92.

`CCC(=O)N[C@@H](C)c1ccc(OC2CCN(c3ccc(OCC4CC4(F)F)cn3)C2)cc1` (stereo partly drawn) [Example 2.33] showed a pIC50 of 7.26.

Regarding `C[C@H](NC(=O)c1cn[nH]c1)c1ccc(OC2CCN(c3ccc(OCC4CC4(F)F)cn3)C2)cc1` (stereo partly drawn) [Example 2.34], the pIC50 was 7.16.

The record behind these values is patent US8877741B2, “Pyrrolidine derivatives, pharmaceutical compositions and uses thereof” (Boehringer Ingelheim International GmbH, priority 2013, dated 2014).
